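Where inhibition never reached the appropriate level, the endpoint shown equals the highest concentration tested. Otherwise, values were interpolated linearly from a five-concentration, 48-hour dose response in 96-well plates. The concentration for 50% growth inhibition is given as GI50.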 The source made the active and inactive calls. No stated cut-off is given here; in the data, active = GI50 up to about 1.1 µM and inactive = higher.
How the values were obtained:
Experiment in all cases: NCI tumour cell line growth inhibition, 48 h
786-0 = tested on: 786-0
A498 = tested on: A498
A549 = tested on: A549
ACHN = tested on: ACHN
CAKI-1 = tested on: CAKI-1
CCRF-CEM = tested on: CCRF-CEM
COLO 205 = tested on: COLO 205
DMS-114 = tested on: DMS-114
DMS-273 = tested on: DMS-273
EKVX = tested on: EKVX
HCC 2998 = tested on: HCC 2998
HCT-116 = tested on: HCT-116
HCT-15 = tested on: HCT-15
HL-60 = tested on: HL-60
HOP-62 = tested on: HOP-62
HT-29 = tested on: HT-29
IGROV-1 = tested on: IGROV-1
K562 = tested on: K562
KM-20L2 = tested on: KM-20L2
LOX IMVI = tested on: LOX IMVI
LXFL 529 = tested on: LXFL 529
M14 = tested on: M14
M19-MEL = tested on: M19-MEL
MOLT-4 = tested on: MOLT-4
Malme-3M = tested on: Malme-3M
NCI-H226 = tested on: NCI-H226
NCI-H23 = tested on: NCI-H23
NCI-H460 = tested on: NCI-H460
OVCAR-3 = tested on: OVCAR-3
OVCAR-4 = tested on: OVCAR-4
OVCAR-5 = tested on: OVCAR-5
OVCAR-8 = tested on: OVCAR-8
RXF 393 = tested on: RXF 393
RXF 631 = tested on: RXF 631
SF-268 = tested on: SF-268
SF-295 = tested on: SF-295
SF-539 = tested on: SF-539
SK-MEL-2 = tested on: SK-MEL-2
SN12C = tested on: SN12C
SNB-19 = tested on: SNB-19
SR = tested on: SR
SW-620 = tested on: SW-620
TK-10 = tested on: TK-10
U-251 = tested on: U-251
UACC-257 = tested on: UACC-257
UACC-62 = tested on: UACC-62
UO-31 = tested on: UO-31
XF498 = tested on: XF498
BT-549 = tested on: BT-549
DLD-1 = tested on: DLD-1
DU-145 = tested on: DU-145
HOP-18 = tested on: HOP-18
HOP-92 = tested on: HOP-92
Hs-578T = tested on: Hs-578T
KM12 = tested on: KM12
MCF7 = tested on: MCF7
MDA-MB-231 = tested on: MDA-MB-231
MDA-MB-435 = tested on: MDA-MB-435
NCI-H522 = tested on: NCI-H522
NCI/ADR-RES = tested on: NCI/ADR-RES
PC-3 = tested on: PC-3
RPMI-8226 = tested on: RPMI-8226
SK-MEL-28 = tested on: SK-MEL-28
SK-OV-3 = tested on: SK-OV-3
SNB-75 = tested on: SNB-75
SNB-78 = tested on: SNB-78
T47D = tested on: T47D

CCCCn1c(-c2ccccc2)cs/c1=N\N=C1C=C(C(C)(C)C)C(=O)C(C(C)(C)C)=C1
GI50 (786-0): > 100000 nM (inactive) | GI50 (A498): > 100000 nM (inactive) | GI50 (A549): > 100000 nM (inactive) | GI50 (ACHN): > 100000 nM (inactive) | GI50 (CAKI-1): > 100000 nM (inactive) | GI50 (CCRF-CEM): > 100000 nM (inactive) | GI50 (COLO 205): > 100000 nM (inactive) | GI50 (DMS-114): > 100000 nM (inactive) | GI50 (DMS-273): > 100000 nM (inactive) | GI50 (EKVX): > 100000 nM (inactive) | GI50 (HCC 2998): > 100000 nM (inactive) | GI50 (HCT-116): > 100000 nM (inactive) | GI50 (HCT-15): > 100000 nM | GI50 (HL-60): > 100000 nM (inactive) | GI50 (HOP-62): > 100000 nM (inactive) | GI50 (HT-29): > 100000 nM (inactive) | GI50 (IGROV-1): > 100000 nM (inactive) | GI50 (K562): > 100000 nM (inactive) | GI50 (KM-20L2): > 100000 nM (inactive) | GI50 (LOX IMVI): > 100000 nM (inactive) | GI50 (LXFL 529): > 100000 nM (inactive) | GI50 (M14): > 100000 nM (inactive) | GI50 (M19-MEL): > 100000 nM (inactive) | GI50 (MOLT-4): > 100000 nM (inactive) | GI50 (Malme-3M): > 100000 nM (inactive) | GI50 (NCI-H226): > 100000 nM (inactive) | GI50 (NCI-H23): > 100000 nM (inactive) | GI50 (NCI-H460): > 100000 nM (inactive) | GI50 (OVCAR-3): > 100000 nM (inactive) | GI50 (OVCAR-4): > 100000 nM (inactive) | GI50 (OVCAR-5): > 100000 nM (inactive) | GI50 (OVCAR-8): > 100000 nM (inactive) | GI50 (RXF 393): > 100000 nM (inactive) | GI50 (RXF 631): > 100000 nM (inactive) | GI50 (SF-268): > 100000 nM (inactive) | GI50 (SF-295): > 100000 nM (inactive) | GI50 (SF-539): > 100000 nM (inactive) | GI50 (SK-MEL-2): > 100000 nM (inactive) | GI50 (SN12C): > 100000 nM (inactive) | GI50 (SNB-19): > 100000 nM (inactive) | GI50 (SR): > 100000 nM (inactive) | GI50 (SW-620): > 100000 nM (inactive) | GI50 (TK-10): > 100000 nM (inactive) | GI50 (U-251): > 100000 nM (inactive) | GI50 (UACC-257): > 100000 nM (inactive) | GI50 (UACC-62): > 100000 nM (inactive) | GI50 (UO-31): > 100000 nM (inactive) | GI50 (XF498): > 100000 nM (inactive)

CCC1(OC(=O)CN)C(=O)OCc2c1cc1n(c2=O)Cc2cc3ccccc3nc2-1 (stereo unspecified)
GI50 (786-0): 10 nM (active) | GI50 (A498): 51.2 nM (active) | GI50 (A549): 11 nM (active) | GI50 (ACHN): 10 nM (active) | GI50 (BT-549): 59.3 nM (active) | GI50 (CAKI-1): 10 nM (active) | GI50 (CCRF-CEM): 10 nM (active) | GI50 (COLO 205): 49.1 nM (active) | GI50 (DLD-1): 250 nM (active) | GI50 (DMS-114): 9.89 nM (active) | GI50 (DMS-273): 4.71 nM (active) | GI50 (DU-145): 10 nM (active) | GI50 (EKVX): 598 nM (active) | GI50 (HCC 2998): 66.4 nM (active) | GI50 (HCT-15): 149 nM | GI50 (HL-60): 7.64 nM (active) | GI50 (HOP-18): 97.5 nM (active) | GI50 (HOP-62): 10 nM (active) | GI50 (HOP-92): 547 nM (active) | GI50 (Hs-578T): 6140 nM (inactive) | GI50 (IGROV-1): 41.1 nM (active) | GI50 (K562): 33.4 nM (active) | GI50 (KM-20L2): 124 nM (active) | GI50 (KM12): 128 nM (active) | GI50 (LOX IMVI): < 10.2 nM (active) | GI50 (LXFL 529): 546 nM (active) | GI50 (M14): 10 nM (active) | GI50 (M19-MEL): 123 nM (active) | GI50 (MCF7): 10 nM (active) | GI50 (MDA-MB-231): 380 nM (active) | GI50 (MDA-MB-435): 56.4 nM (active) | GI50 (MOLT-4): 10 nM (active) | GI50 (Malme-3M): 151 nM (active) | GI50 (NCI-H226): 13.4 nM (active) | GI50 (NCI-H23): 10 nM (active) | GI50 (NCI-H460): 10 nM (active) | GI50 (NCI-H522): 18.8 nM (active) | GI50 (NCI/ADR-RES): 11.8 nM (active) | GI50 (OVCAR-3): 94.4 nM (active) | GI50 (OVCAR-4): 120 nM (active) | GI50 (OVCAR-5): 45.7 nM (active) | GI50 (PC-3): 66.1 nM (active) | GI50 (RPMI-8226): < 13.2 nM (active) | GI50 (RXF 393): 37.8 nM (active) | GI50 (SF-268): 10 nM (active) | GI50 (SF-295): 10 nM (active) | GI50 (SF-539): 10 nM (active) | GI50 (SK-MEL-28): 101 nM (active) | GI50 (SK-MEL-2): 79.4 nM (active) | GI50 (SK-OV-3): 29.7 nM (active) | GI50 (SN12C): 11.3 nM (active) | GI50 (SNB-19): 10 nM (active) | GI50 (SNB-75): 21.3 nM (active) | GI50 (SNB-78): 738 nM (active) | GI50 (SR): 10 nM (active) | GI50 (SW-620): 67 nM (active) | GI50 (T47D): 12 nM (active) | GI50 (TK-10): 516 nM (active) | GI50 (U-251): 10 nM (active) | GI50 (UACC-257): 35.3 nM (active) | GI50 (UACC-62): 10 nM (active) | GI50 (UO-31): 11.4 nM (active) | GI50 (XF498): 147 nM (active)
